One compound from patent US20090143288A1, “Peptide-complement conjugates” (Roche Palo Alto LLC, priority 2007, published 2009) can be followed below.

In the experiment the target is HR1 region of HIV-1 gp41 (immobilized biotinylated HR1 peptide Biotin-T-2324) (Human immunodeficiency virus type 1 group M subtype B, UniProt P04582, G556A). Description: BIAcore surface plasmon resonance analysis of the binding to the HR1 region. Particulars: SPR, BIAcore 3000, 25° C., HBS-P buffer, 1:1 Langmuir binding model. For orientation: SPR reads the build-up and loss of mass on a sensor chip optically.

In the case of `CC[C@H](C)[C@H](NC(=O)[C@H](CCC(N)=O)NC(=O)[C@H](C)NC(=O)[C@H](CCC(N)=O)NC(=O)[C@H](CCC(=O)O)NC(=O)[C@H](CC(C)C)NC(=O)[C@H](CC(C)C)NC(=O)[C@H](C)NC(=O)[C@@H](NC(=O)[C@@H](NC(=O)[C@H](CCCCN)NC(=O)[C@H](CCC(N)=O)NC(=O)[C@H](CCC(=O)O)NC(=O)[C@H](Cc1c[nH]c2ccccc12)NC(=O)[C@H](CCC(=O)O)NC(=O)[C@H](CCC(N)=O)NC(=O)[C@H](Cc1c[nH]c2ccccc12)NC(C)=O)[C@@H](C)CC)[C@@H](C)O)C(=O)N[C@@H](CCC(N)=O)C(=O)N[C@@H](CCC(N)=O)C(=O)N[C@@H](CCC(=O)O)C(=O)N[C@@H](CCCCN)C(=O)N[C@@H](CC(N)=O)C(=O)N[C@@H](CCC(=O)O)C(=O)N[C@@H](Cc1ccc(O)cc1)C(=O)N[C@@H](CCC(=O)O)C(=O)N[C@@H](CC(C)C)C(=O)N[C@@H](CCC(N)=O)C(=O)N[C@@H](CCCCN)C(=O)N[C@@H](CC(C)C)C(=O)N[C@@H](CC(=O)O)C(=O)N[C@@H](CCCCN)C(=O)N[C@@H](Cc1c[nH]c2ccccc12)C(=O)N[C@@H](C)C(=O)N[C@@H](CO)C(=O)N[C@@H](CC(C)C)C(=O)N[C@@H](Cc1c[nH]c2ccccc12)C(=O)N[C@@H](CCC(=O)O)C(=O)N[C@@H](Cc1c[nH]c2ccccc12)C(=O)N[C@@H](Cc1ccccc1)C(N)=O` [Rob T-1249, WQEWEQKITALLEQAQIQQEKNEYELQKLDKWASLWEWF], the “ka (association rate constant)” value was 6.4 * 10^5 1/ms and the “kd (dissociation rate constant)” value worked out at 0.000845 s⁻¹.
